Experimental data: article PMC12116762, “Topobexin targets the Topoisomerase II ATPase domain for beta isoform-selective inhibition and anthracycline cardioprotection” (Nature Communications, 2025)
Where “and” joins values, the source holds several entries; their conditions need not be identical. Equal values may be shown once.

Tests used:
[1] = tested on: rabbits; experiment: Chronic anthracycline cardiotoxicity model in rabbits
Protocol: Thirty-eight rabbits were used for this purpose using the following study design. Chronic cardiotoxicity was induced by DAU (3 mg/kg, i.v., once weekly for 10 weeks, n = 11), while the control group received the same volume of saline (1 ml/kg, n = 9) in the same way. […] Animal survival was monitored daily, while body weight change was recorded weekly. The experiment was scheduled to end a week after the last dosing of the compounds studied.
Cardiac damage induced by DAU was quantified by determination of cardiac troponin T in plasma before the 1st, 5th, 8th and 10th doses and at the end of the study using a high sensitivity assay (Elecsys Troponin T high sensitive STAT test, Roche Diagnostics, Switzerland, detection limit of 0.003 μg/L). The area under curve (AUC) of the plasma concentration of cardiac troponin T was determined using GraphPad Prism.
The systolic function of the LV was examined throughout the experiment without invasiveness using echocardiography (Vivid 4, probe 10.5 MHz, GE HeathCare) and invasively at the scheduled end of the experiment using LV catheterization (a Millar catheter 2.3 F, Millar Instruments, USA). In the echocardiography examination, the M-mode was used to determine the dimensions of the LV and the fractional shortening of the LV (LVFS) was calculated as an index of systolic function as described previously[46]. Similarly, from the change in LV pressures determined by catheterization of the LV, dP/dtmax was calculated as an index of systolic function as previously described[47]. Statistical significance was determined using one way ANOVA followed by the Holm–Sidak post hoc test or Kruskal–Wallis ANOVA on ranks followed by Dunn’s post hoc test according to the data distribution.
During necropsy, heart was rapidly excised, washed in cold saline and LV free wall was snap frozen in liquid nitrogen. After homogenization in liquid nitrogen, aliquots (aprox. 50 mg) were stored at -80 °C and used for PCR analysis of molecular markers of cardiotoxicity. Total RNA was isolated from rabbit LV myocardium using TRIzol reagent (Sigma-Aldrich). After reverse transcription using a High-Capacity cDNA Reverse Transcription Kit, qPCR was performed with TaqMan Fast Universal PCR Master Mix on QuantStudio 7 Flex Real-Time PCR System (all from Applied Biosystems, Foster City). […] Mean threshold cycle values were transformed into relative expression using the Pfaffl method. Commercial gene expression assays were obtained from Applied Biosystems and Generi Biotech (Hradec Králové, Czech Republic). The expression data were normalized by Hprt1 expression. Statistical significance was determined using one way ANOVA followed by the Holm–Sidak post hoc test or Kruskal–Wallis ANOVA on ranks followed by Dunn’s post hoc test according to the data distribution.

[2] = tested on: γH2AX; experiment: γH2AX levels in NVCM (Western blotting); format: cell-based, rat; set-up: γH2AX level, mean: scale not given here; conditions: for γH2AX level: independent replicates
Protocol: TOP2B and γH2AX levels in NVCM were determined as follows. After incubation, 4 × 10^5 rat neonatal cardiomyocytes were lysed with 75 µL of 2% SDS in 0.1 M Tris (pH 7.4) and boiled at 95 °C for 5 min. The protein content of each sample was determined by the BCA method and 10 μg of total protein were loaded onto a polyacrylamide gel (7.5% for TOP2B, 12% for γH2AX, Bio-Rad TGX stain-free gels). After approximately 75 min of electrophoresis (150 V, Bio-Rad Mini-PROTEAN Tetra Cell), the gels were transblotted onto nitrocellulose membranes using a semi-dry method in Transblot Turbo (Bio-Rad, USA). The next day, the membranes were blocked for 1 h in 5% skimmed milk powder in 0.05% TBS-T at room temperature (RT). For TOP2 analysis, membranes were incubated with rabbit anti-TOP2A/B (1:2,000, ab109524, Abcam, UK) in 1% BSA in PBS for 1 h at RT, washed 6 times for 5 min in 0.05% TBS-T and then incubated with HRP-labeled F(ab’)2 goat anti-rabbit IgG (1:10,000, ab6112, Abcam, UK) in 0.05% TBS-T for 1 h RT and washed again (6 × 5 min in 0.05% TBS-T). For γH2AX analysis, membranes were incubated with mouse anti-γH2AX (1:5,000; ab26350, Abcam, UK) in 5% BSA in PBS for 1 h at RT, washed with 0.05% PBS-T for 6 × 5 min, incubated with HRP-conjugated anti-mouse IgG (1:40,000; A9044 Sigma Aldrich, USA) in 5% BSA in PBS for 1 h RT and finally washed with 0.05% PBS-T for 6 times 5 min. Target proteins were visualized using a chemiluminescent detection substrate (Clarity Western ECL Substrate, Bio-Rad, USA) and a Gel Doc EZ with Image Lab software (Bio-Rad, USA). Full, uncropped images of all blots present in the manuscript figures are included in the source data file.
Densitometric quantification was performed using Image Lab software (Bio-Rad). Stain-free technology was used to visualize the total protein on the gel and normalize the total protein amount in each line. Each presented data point was obtained from distinct sample.

[3] = tested on: γH2AX; experiment: Acute DAU-induced DNA damage (γH2AX) in rabbit LV myocardium; format: in vivo; set-up: γH2AX in LV myocardium: scale not given here; conditions: for γH2AX in LV myocardium: individual animals
Protocol: For the determination of γH2aX protein in in vivo experiments, pulverized rabbit LV samples were homogenized in commercial 1× SDS Lysis Buffer (PhosphoSolutions) with phosphatase and protease inhibitor solutions (Thermo Fisher Scientific and Roche, respectively) and boiled at 95 °C for 10 min. Protein concentrations were assessed by the BCA Protein Assay Kit (Sigma-Aldrich), and 85 μg of protein were loaded into Mini-PROTEAN 12% TGX Precast Stain-free Gel (Bio-Rad). After separation, the proteins were transferred onto a nitrocellulose membrane using a Trans-Blot Turbo System (all Bio-Rad). Mouse monoclonal anti-γH2AX (1:800, ab26350, Abcam) was used as the primary antibody, and horseradish peroxidase-conjugated goat anti-mouse immunoglobulin (1:1000, P044701, DAKO) was used as the secondary antibody. The BM Chemiluminescence Blotting Substrate (Roche) and Fusion Solo S coupled with CCD camera (Vilber) were used for signal detection.
Rabbits (n = 24) were divided equally into four groups (n = 6 in each) receiving a single dose as follows: DAU (3 mg/kg, i.v. bolus), saline (1 ml/kg, i.v., the control group), topobexin (9) alone (10 mg/kg, prepared and administered as describe above in the pharmacokinetic study, i.e., in 20 min i.v. infusion) and the combination group (topobexin (9) 10 mg/kg via 20 min i.v. infusion followed by DAU 3 mg/kg as i.v. bolus into the contralateral ear 40 min after the end of topobexin (9) infusion). Based on preliminary data, the experiment was completed 90 min after administration of DAU or saline. The heart was excised and γH2AX as a marker of DNA damage was determined in myocardial homogenates using Western blotting as described above.

[4] = tested on: caspase 9; experiment: Caspase 9 activity in NVCM (Caspase-Glo); format: cell-based, rat; conditions: for Csp9 activity: independent replicates
Protocol: Caspase activity was assessed on NVCM cells using luciferase-based kits for caspase 3/7, 8 and 9 (Caspase-Glo® 3/7, 8 and 9 assay systems; Promega) according to the manufacturer’s instructions on 384-well plates (Greiner Bio-One). Luminescence signal was measured using Tecan M200 multifunctional plate-reader. All measured groups were corrected for total protein concentration (BCA assay) and were expressed as fold change of the signal over corresponding untreated control group. Each presented data point was obtained from distinct sample. Statistical significance was determined using ratio paired t-test, two-tailed.

[5] = Topobexin alone, individual animals
[6] = Topobexin+DAU, individual animals

COc1cccc2c1C(=O)c1c(O)c3c(c(O)c1C2=O)C[C@@](O)(C(C)=O)C[C@@H]3O[C@H]1C[C@H](N)[C@H](O)[C@H](C)O1 [DAU, daunorubicin, reference compound]
premature death ([1]; DAU 3 mg/kg weekly, 10 weeks): one premature death
Body weight gain ([1]; DAU alone, individual animals): 111.6 and 102.0 and 134.7 and 116.1 and 99.5 and 98.2 and 106.3 and 117.5 and 112.5 and 97.6 and 92.2
Brain natriuretic peptide mRNA, LV myocardium ([1]; DAU alone, individual animals): 3.43 and 7.71 and 11.23 and 1.53 and 3.70 and 14.27 and 5.99 and 15.03 and 2.12 and 2.78
Collagen I alpha 1 mRNA ([1]; DAU alone, individual animals): 1.89 and 3.79 and 5.05 and 1.80 and 2.15 and 7.04 and 4.33 and 8.95 and 1.98 and 2.03
Fibronectin 1 mRNA ([1]; DAU alone, individual animals): 2.75 and 11.42 and 16.69 and 2.86 and 6.76 and 33.96 and 11.80 and 25.41 and 3.99 and 2.01
LV FS (LMV) ([1]; DAU alone, individual animals): 35.5 and 28.3 and 21.8 and 37.5 and 22.5 and 33.0 and 26.0 and 35.8
LV dP/dtmax ([1]; DAU alone, individual animals): 4037 and 6946 and 6956 and 5174 and 3773 and 6731 and 5382 and 6442
Δ LV FS (LMV) ([1]; DAU alone, individual animals): -7.5 and -6.8 and -15.3 and -22.3 and -4.5 and -6.0 and -18.5 and -9.0 and -16.5 and -17.5 and -9.2
γH2AX level, mean ([2]; DAU 1.2 μM alone): 100
γH2AX level ([2]; DAU 1.2 μM alone): 113.699 and 89.6209 and 76.0928 and 120.587
γH2AX in LV myocardium ([3]; DAU 3 mg/kg alone, 1.5 h): 10.11 and 5.83 and 6.97 and 6.98 and 3.35 and 7.46
Csp9 activity, mean ([4]; DAU 1.2 μM alone): 2.579 fold change
Csp9 activity ([4]; DAU 1.2 μM alone): 1.742 fold change and 1.782 fold change and 3.523 fold change and 1.858 fold change and 4.0027 fold change and 2.565 fold change

CCCc1cc(=O)oc2c(C(=O)N3CCCc4ccccc43)c(OCCN3CCN(C)CC3)ccc12 [topobexin (9)]
Body weight gain [1, 5]: 141.3 and 136.4 and 124.5 and 123.7 and 134.0 and 143.6 and 132.0
Brain natriuretic peptide mRNA, LV myocardium [1, 5]: 3.72 and 0.42 and 0.55 and 0.81 and 0.90 and 0.28 and 2.33
Collagen I alpha 1 mRNA [1, 5]: 1.54 and 1.27 and 0.81 and 0.88 and 1.14 and 1.41 and 1.19
Fibronectin 1 mRNA [1, 5]: 1.41 and 1.30 and 1.55 and 1.58 and 1.78
LV FS (LMV) [1, 5]: 42.0 and 40.5 and 42.5 and 43.5 and 39.0 and 43.0
LV dP/dtmax [1, 5]: 7750 and 7165 and 9815 and 8309 and 8311 and 8034 and 7362
Δ LV FS (LMV) [1, 5]: 1.0 and -1.5 and 2.0 and -1.0 and -2.5
Body weight gain [1, 6]: 104.9 and 134.7 and 121.0 and 128.3 and 113.2 and 106.8 and 114.9 and 101.0 and 104.7
Brain natriuretic peptide mRNA, LV myocardium [1, 6]: 1.55 and 3.15 and 0.69 and 1.65 and 1.04 and 0.65 and 5.19 and 1.00 and 2.01 and 1.22 and 0.48
Collagen I alpha 1 mRNA [1, 6]: 0.77 and 1.31 and 1.34 and 2.10 and 1.65 and 1.81 and 2.59 and 0.95 and 1.66 and 0.86 and 1.09
Fibronectin 1 mRNA [1, 6]: 0.87 and 1.85 and 1.50 and 1.99 and 1.56 and 2.18 and 3.87 and 1.34 and 1.94 and 1.25 and 1.18
LV FS (LMV) [1, 6]: 42.0 and 43.5 and 39.3 and 42.3 and 44.0 and 42.8 and 40.0 and 41.0 and 43.8
LV dP/dtmax [1, 6]: 8562 and 8147 and 6788 and 7928 and 8340 and 7337 and 7402 and 8558 and 8112 and 8066 and 7973
Δ LV FS (LMV) [1, 6]: -1.5 and 3.0 and -2.3 and 0.5 and 4.0 and -0.3 and -4.0 and -1.0 and 0.0 and 2.3 and 2.0
tolerability ([1]; alone or with DAU, weekly for 10 weeks): well tolerated
Body weight gain ([1]; topobexin + DAU): matched the DAU group
LV expression of BNP ([1]; topobexin + DAU): prevented by co-administration of topobexin (9)
LV systolic function (echocardiography) ([1]; topobexin + DAU): effectively prevented the DAU-induced decrease in LV systolic function
cardiomyocyte damage, plasma cTnT ([1]; topobexin + DAU): effectively prevented by topobexin (9)
survival ([1]; topobexin + DAU): survived until the scheduled end of the experiment
Body weight gain ([1]; topobexin alone): did not differ from the control group
γH2AX level, mean ([2]; 0.1 µM + DAU 1.2 µM): 39.0271
γH2AX level ([2]; 0.1 µM + DAU 1.2 µM): 36.8376 and 42.68 and 24.34 and 52.2506
γH2AX level, mean ([2]; 0.1 µM alone): 2.32
γH2AX level ([2]; 0.1 µM alone, DAU mean 100): 5.77 and 0.9222 and 2.18 and 0.4088
γH2AX level, mean ([2]; 1 µM + DAU 1.2 µM): 7.0222
γH2AX level ([2]; 1 µM + DAU 1.2 µM): 17.1283 and 3.616 and 2.74 and 4.605
γH2AX level, mean ([2]; 1 µM alone): 3.099
γH2AX level ([2]; 1 µM alone): 8.242 and 0.9663 and 2.352 and 0.8374
γH2AX level, mean ([2]; 10 µM + DAU 1.2 µM): 3.08
γH2AX level ([2]; 10 µM + DAU 1.2 µM): 6.036 and 4.664 and 0.5024 and 1.119
γH2AX level, mean ([2]; 10 µM alone): 2.838
γH2AX level ([2]; 10 µM alone): 3.615 and 3.033 and 2.846 and 1.856
lowest concentration tested preventing DAU-induced γH2AX ([2]; NVCM): 0.1 µM
DAU-induced DNA damage (γH2AX) in LV myocardium ([3]; 10 mg/kg before DAU 3 mg/kg, 1.5 h after DAU): effectively prevent induction of DNA damage
γH2AX in LV myocardium ([3]; Topobexin alone 10 mg/kg): 1.55 and 1.42 and 1.45 and 1.03 and 1.17 and 1.33
γH2AX in LV myocardium ([3]; Topobexin+DAU): 1.79 and 1.30 and 1.64 and 0.82 and 1.38 and 2.72
Csp9 activity, mean ([4]; Cmpd 9 10 μM + DAU 1.2 μM): 1.834 fold change
Csp9 activity ([4]; Cmpd 9 10 μM + DAU 1.2 μM): 1.395 fold change and 1.389 fold change and 2.498 fold change and 1.26 fold change and 2.708 fold change and 1.753 fold change
Csp9 activity, mean ([4]; Cmpd 9 10 μM alone): 0.9606 fold change
Csp9 activity ([4]; Cmpd 9 10 μM alone): 0.8436 fold change and 1.03 fold change and 0.994 fold change and 0.6408 fold change and 0.974 fold change and 1.282 fold change
